Laboratory results as given in PubChem BioAssay AID248 (DTP/NCI, 2004).
“And” between values parts separate entries of the source, which are not always exact repeats. Identical values can stand only once. Inconclusive results and toxic doses are left out. Rule as the data show it: active = T/C of 150% or more; inactive = T/C below 125%.

Test system: L1210 leukemia ip in BDF1 mice, survival T/C
Experiment: NCI In Vivo Anticancer Drug Screen. Data for tumor model L1210 Leukemia (intraperitoneal) in B6D2F1 (BDF1) mice
Details: higher = longer survival
How it was run: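 Ratio derived from survival: compound-dosed mice over vehicle-dosed mice, all bearing a transplantable tumor.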

Measured: T/C

O=c1[nH]cc(F)c(=O)[nH]1
inactive: endpoint: mean survival time, dose: 0.06 mg/kg/injection, schedule: Q#A X Z (ip), vehicle: carboxymethylcellulose (CMC) 103 % of control | endpoint: mean survival time, dose: 0.12 mg/kg/injection, schedule: Q#A X Z (ip), vehicle: carboxymethylcellulose (CMC) 108 % of control | endpoint: mean survival time, dose: 0.25 mg/kg/injection, schedule: Q#A X Z (ip), vehicle: carboxymethylcellulose (CMC) 106 % of control | endpoint: mean survival time, dose: 0.5 mg/kg/injection, schedule: Q#A X Z (ip), vehicle: carboxymethylcellulose (CMC) 112 % of control | endpoint: mean survival time, dose: 0.63 mg/kg/injection, schedule: Q01DX015 (ip), vehicle: water 100 % of control | endpoint: mean survival time, dose: 0.75 mg/kg/injection, schedule: Q03DX006 (ip), vehicle: carboxymethylcellulose (CMC) 105 % of control | endpoint: mean survival time, dose: 1.0 mg/kg/injection, schedule: Q01DX009 (ip), vehicle: other 105 % of control | endpoint: mean survival time, dose: 1.4 mg/kg/injection, schedule: Q01DX Z (ip), vehicle: saline 109 % of control | endpoint: mean survival time, dose: 2.0 mg/kg/injection, schedule: Q01DX005 (iv), vehicle: carboxymethylcellulose (CMC) 108 % of control | endpoint: mean survival time, dose: 2.0 mg/kg/injection, schedule: Q01DX Z (im), vehicle: carboxymethylcellulose (CMC) 108 % of control | endpoint: mean survival time, dose: 2.0 mg/kg/injection, schedule: Q01DX Z (ip), vehicle: carboxymethylcellulose (CMC) 108 % of control | endpoint: mean survival time, dose: 2.5 mg/kg/injection, schedule: Q01DX015 (ip), vehicle: water 107 % of control | endpoint: mean survival time, dose: 4.0 mg/kg/injection, schedule: Q01DX005 (iv), vehicle: carboxymethylcellulose (CMC) 111 % of control | endpoint: mean survival time, dose: 4.8 mg/kg/injection, schedule: Q04DX002 (ip), vehicle: saline 93 % of control and 101 % of control | endpoint: mean survival time, dose: 5.0 mg/kg/injection, schedule: Q01DX006 (ip), vehicle: saline 110 % of control | endpoint: mean survival time, dose: 5.0 mg/kg/injection, schedule: Q01DX010 (ip), vehicle: saline 107 % of control | endpoint: mean survival time, dose: 8.0 mg/kg/injection, schedule: Q01DX005 (iv), vehicle: carboxymethylcellulose (CMC) 108 % of control | endpoint: mean survival time, dose: 8.4 mg/kg/injection, schedule: Q01DX009 (ip), vehicle: saline 102 % of control | endpoint: mean survival time, dose: 8.4 mg/kg/injection, schedule: Q01DX Z (ip), vehicle: saline 102 % of control | endpoint: mean survival time, dose: 9.5 mg/kg/injection, schedule: Q04DX002 (ip), vehicle: saline 101 % of control and 102 % of control | endpoint: mean survival time, dose: 10.0 mg/kg/injection, schedule: Q01DX009 (oral), vehicle: saline 111 % of control | endpoint: mean survival time, dose: 12.5 mg/kg/injection, schedule: Q04DX003 (ip), vehicle: saline 98 % of control | endpoint: mean survival time, dose: 13.3 mg/kg/injection, schedule: Q04DX003 (ip), vehicle: saline 110 % of control | endpoint: mean survival time, dose: 16.0 mg/kg/injection, schedule: Q#A X Z (ip), vehicle: carboxymethylcellulose (CMC) 108 % of control | endpoint: mean survival time, dose: 19.0 mg/kg/injection, schedule: Q04DX002 (ip), vehicle: saline 101 % of control | endpoint: mean survival time, dose: 27.5 mg/kg/injection, schedule: Q01DX012 (sc), vehicle: other 110 % of control | endpoint: mean survival time, dose: 30.0 mg/kg/injection, schedule: Q01DX009 (ip), vehicle: none 109 % of control | endpoint: mean survival time, dose: 30.0 mg/kg/injection, schedule: Q01DX009 (ip), vehicle: saline 101 % of control and 109 % of control | endpoint: mean survival time, dose: 30.0 mg/kg/injection, schedule: Q01DX Z (ip), vehicle: saline 97 % of control | endpoint: mean survival time, dose: 30.0 mg/kg/injection, schedule: Q## X Z (ip), vehicle: saline 98 % of control | endpoint: mean survival time, dose: 39.0 mg/kg/injection, schedule: Q01DX009 (ip), vehicle: saline 109 % of control | endpoint: mean survival time, dose: 39.0 mg/kg/injection, schedule: Q01DX Z (ip), vehicle: saline 96 % of control and 109 % of control | endpoint: mean survival time, dose: 40.0 mg/kg/injection, schedule: Q01DX010 (ip), vehicle: saline 100 % of control | endpoint: mean survival time, dose: 40.0 mg/kg/injection, schedule: Q01DX Z (ip), vehicle: methylcellulose (MC) 103 % of control | endpoint: mean survival time, dose: 45.0 mg/kg/injection, schedule: Q## X006 (ip), vehicle: saline 95 % of control | endpoint: mean survival time, dose: 50.0 mg/kg/injection, schedule: Q01DX Z (ip), vehicle: methylcellulose (MC) 94 % of control | endpoint: mean survival time, dose: 52.0 mg/kg/injection, schedule: Q01DX009 (ip), vehicle: saline 111 % of control | endpoint: mean survival time, dose: 64.0 mg/kg/injection, schedule: Q01DX Z (im), vehicle: carboxymethylcellulose (CMC) 96 % of control | endpoint: mean survival time, dose: 64.0 mg/kg/injection, schedule: Q01DX Z (oral), vehicle: carboxymethylcellulose (CMC) 94 % of control | endpoint: mean survival time, dose: 64.0 mg/kg/injection, schedule: Q01DX Z (sc), vehicle: carboxymethylcellulose (CMC) 105 % of control | endpoint: mean survival time, dose: 65.0 mg/kg/injection, schedule: Q01DX009 (ip), vehicle: saline 93 % of control | endpoint: mean survival time, dose: 67.0 mg/kg/injection, schedule: Q02DX010 (ip), vehicle: other 102 % of control | endpoint: mean survival time, dose: 67.1 mg/kg/injection, schedule: Q01DX005 (sc), vehicle: other 100 % of control | endpoint: mean survival time, dose: 68.0 mg/kg/injection, schedule: Q02DX010 (ip), vehicle: carboxymethylcellulose (CMC) 108 % of control | endpoint: mean survival time, dose: 68.0 mg/kg/injection, schedule: Q02DX010 (ip), vehicle: other 98 % of control | endpoint: mean survival time, dose: 80.0 mg/kg/injection, schedule: Q01DX005 (ip), vehicle: Klucel (hydroxypropylcellulose) (HPC) 97 % of control | endpoint: mean survival time, dose: 80.0 mg/kg/injection, schedule: Q01DX005 (ip), vehicle: acetone 100 % of control | endpoint: mean survival time, dose: 80.0 mg/kg/injection, schedule: Q01DX005 (ip), vehicle: other 100 % of control | endpoint: mean survival time, dose: 80.0 mg/kg/injection, schedule: Q01DX006 (ip), vehicle: saline 103 % of control | endpoint: mean survival time, dose: 80.0 mg/kg/injection, schedule: Q01DX009 (ip), vehicle: none 93 % of control | endpoint: mean survival time, dose: 80.0 mg/kg/injection, schedule: Q01DX009 (ip), vehicle: water 95 % of control | endpoint: mean survival time, dose: 80.0 mg/kg/injection, schedule: Q01DX009 (oral), vehicle: saline 103 % of control | endpoint: mean survival time, dose: 80.0 mg/kg/injection, schedule: Q01DX015 (ip), vehicle: saline 110 % of control | endpoint: mean survival time, dose: 80.0 mg/kg/injection, schedule: Q02DX005 (ip), vehicle: water 108 % of control | endpoint: mean survival time, dose: 90.0 mg/kg/injection, schedule: Q04DX004 (ip), vehicle: saline 98 % of control | endpoint: mean survival time, dose: 94.5 mg/kg/injection, schedule: Q02DX010 (ip), vehicle: carboxymethylcellulose (CMC) 109 % of control | endpoint: mean survival time, dose: 101.0 mg/kg/injection, schedule: Q02DX010 (ip), vehicle: carboxymethylcellulose (CMC) 95 % of control | endpoint: mean survival time, dose: 120.0 mg/kg/injection, schedule: Q01DX006 (ip), vehicle: saline 98 % of control | endpoint: mean survival time, dose: 120.0 mg/kg/injection, schedule: Q04DX003 (ip), vehicle: saline with Tween-80 93 % of control and 96 % of control and 102 % of control | endpoint: mean survival time, dose: 120.0 mg/kg/injection, schedule: Q## X004 (ip), vehicle: water 105 % of control | endpoint: mean survival time, dose: 128.0 mg/kg/injection, schedule: Q01DX005 (iv), vehicle: carboxymethylcellulose (CMC) 109 % of control | endpoint: mean survival time, dose: 164.0 mg/kg/injection, schedule: Q01DX002 (sc), vehicle: other 95 % of control | endpoint: mean survival time, dose: 177.6 mg/kg/injection, schedule: Q01DX001 (ip), vehicle: carboxymethylcellulose (CMC) 111 % of control | endpoint: mean survival time, dose: 180.0 mg/kg/injection, schedule: Q## X004 (ip), vehicle: water 107 % of control | endpoint: mean survival time, dose: 200.0 mg/kg/injection, schedule: Q02DX005 (ip), vehicle: saline 96 % of control | endpoint: mean survival time, dose: 200.0 mg/kg/injection, schedule: Q04DX002 (ip), vehicle: saline 110 % of control | endpoint: mean survival time, dose: 256.0 mg/kg/injection, schedule: Q01DX001 (sc), vehicle: other 101 % of control | endpoint: mean survival time, dose: 256.0 mg/kg/injection, schedule: Q01DX005 (iv), vehicle: carboxymethylcellulose (CMC) 103 % of control | endpoint: mean survival time, dose: 300.0 mg/kg/injection, schedule: Q01DX001 (ip), vehicle: Klucel (hydroxypropylcellulose) (HPC) 104 % of control | endpoint: mean survival time, dose: 320.0 mg/kg/injection, schedule: Q01DX009 (ip), vehicle: saline 94 % of control | endpoint: mean survival time, dose: 400.0 mg/kg/injection, schedule: Q04DX003 (ip), vehicle: saline 97 % of control | endpoint: mean survival time, dose: 400.0 mg/kg/injection, schedule: Q## X004 (ip), vehicle: alkali diluted with saline 109 % of control | endpoint: mean survival time, dose: 600.0 mg/kg/injection, schedule: Q01DX001 (ip), vehicle: carboxymethylcellulose (CMC) 106 % of control | endpoint: mean survival time, dose: 900.0 mg/kg/injection, schedule: Q01DX001 (ip), vehicle: water 101 % of control | endpoint: mean survival time, dose: 900.0 mg/kg/injection, schedule: Q## X004 (ip), vehicle: alkali diluted with saline 104 % of control | endpoint: median survival time, dose: 4.0 mg/kg/injection, schedule: Q01DX009 (ip), vehicle: saline 98 % of control and 100 % of control | endpoint: median survival time, dose: 8.0 mg/kg/injection, schedule: Q01DX009 (ip), vehicle: saline 98 % of control and 100 % of control | endpoint: median survival time, dose: 16.0 mg/kg/injection, schedule: Q01DX009 (ip), vehicle: saline 100 % of control and 102 % of control | endpoint: median survival time, dose: 23.0 mg/kg/injection, schedule: Q04DX003 (oral), vehicle: saline 106 % of control | endpoint: median survival time, dose: 65.0 mg/kg/injection, schedule: Q01DX005 (ip), vehicle: saline 98 % of control | endpoint: median survival time, dose: 65.0 mg/kg/injection, schedule: Q01DX009 (ip), vehicle: saline 106 % of control | endpoint: median survival time, dose: 75.0 mg/kg/injection, schedule: Q01DX001 (ip), vehicle: saline 109 % of control | endpoint: median survival time, dose: 300.0 mg/kg/injection, schedule: Q01DX001 (ip), vehicle: alkali diluted with saline 97 % of control | endpoint: median survival time, dose: 300.0 mg/kg/injection, schedule: Q04DX003 (oral), vehicle: saline 102 % of control | endpoint: median survival time, dose: 300.0 mg/kg/injection, schedule: Q04DX003 (sc), vehicle: saline 105 % of control | endpoint: median survival time, dose: 500.0 mg/kg/injection, schedule: Q04DX003 (oral), vehicle: saline 108 % of control | endpoint: median survival time, dose: 600.0 mg/kg/injection, schedule: Q01DX001 (ip), vehicle: alkali diluted with saline 101 % of control
